Here are results for six compounds from patent publication JP2022155436A, “メトホルミン塩の調製方法” (Guangzhou University, priority 2021, dated 2021).

A short description of this data set: Hygroscopicity (moisture uptake) test of metformin salts. It is filed as physicochemical. As to conditions: 25°C, 10 days; for moisture-absorption weight increase: 75% RH (saturated NaCl) and 93% RH (saturated KNO3), sampled on day 5 and day 10; for hygroscopicity compared with metformin: 75% RH and 93% RH.

Some results are limits rather than exact numbers.

For `CN(C)C(=N)N=C(N)N.Oc1cccc2c(O)cccc12` [メトホルミンと1,5-ジヒドロキシナフタレン, メトホルミンと1,5-ジヒドロキシナフタレン塩], the moisture-absorption weight increase is reported as < 5% and the “hygroscopicity compared with metformin” value is listed as “吸湿性が顕著に低下した”.

In the case of `CN(C)C(=N)NC(=N)N.O=C(O)Cc1cccc2ccccc12` [メトホルミンと1-ナフタレン酢酸塩], the moisture-absorption weight increase is reported as < 5% and the “hygroscopicity compared with metformin” value is “吸湿性が顕著に低下した”.

`CN(C)C(=N)N=C(N)N.O=C(O)c1ccc2ccccc2c1O` [メトホルミンと1-ヒドロキシ-2-ナフトエ酸塩]: the “hygroscopicity compared with metformin” value is recorded as “吸湿性が顕著に低下した”.

As for `CN(C)C(=N)NC(=N)N.O=C(O)c1ccc2ccccc2c1` [メトホルミンと2-ナフトエ酸塩], the moisture-absorption weight increase is reported as < 5% and the “hygroscopicity compared with metformin” value was “吸湿性が顕著に低下した”.

Take `CN(C)C(=N)N=C(N)N.O=C(O)c1cc2ccccc2cc1O` [メトホルミンと2-ヒドロキシ-3-ナフトエ酸塩form1]: the moisture-absorption weight increase was < 5% and the “hygroscopicity compared with metformin” value is “吸湿性が顕著に低下した”.

In the case of `CN(C)C(=N)NC(=N)N.O=C(O)c1cc2ccccc2cc1O` [メトホルミンと2-ヒドロキシ-3-ナフトエ酸塩form2], the moisture-absorption weight increase is on record as < 5% and the “hygroscopicity compared with metformin” value is “吸湿性が顕著に低下した”.
